Where a name gives a salt, the structure may show the parent alone.

A word on the IC50: it is the concentration that gives 50% inhibition.

This experiment concerns the target T1, GSK-3 (Homo sapiens, UniProt P49841).
T1 construct: made in house
The experiment is described as follows: GSK-3 inhibition, cell-free 33P-ATP peptide substrate SPA assay. Type of experiment: biochemical. The note with it: read-out: inhibitory activity, expressed as IC50's, against GSK-3. Here is the method:
The specific activities of the compounds of formula (I) in inhibiting GSK-3 can be determined in both cell-free and cell-based assays, both of which have been previously described in the relevant art. See, for example, U.S. Pat. Nos. 6,417,185 and 6,489,344, the disclosures of which are incorporated herein by reference in their entirety.
A cell-free assay can be generally carried out by incubating GSK-3 with a peptide substrate, radiolabeled ATP (e.g., for example, γ^33P- or γ^32P-ATP, both of which are available from Amersham; Arlington Heights, Ill.), magnesium ions, and the compound to be assayed. […] The amount of γ^33P or γ^32P remaining in each well after washing is then quantified to determine the amount of radiolabeled phosphate incorporated into the peptide substrate. […]
Another example of a GSK-3 assay, similar to the one described hereinabove, is as follows: enzyme activities are assayed as the incorporation of ^33P from gamma phosphate of ^33P-ATP (Amersham; Arlington Heights, Ill.; catalog #AH-9968) into biotinylated peptide substrate PKTP-KKAKKL. […] The final concentration of ATP is 0.5 μM (final specific radioactivity of 4 μCi/nmol), and the final concentration of substrate is 0.75 μM. […] Radioactivity associated with the beads is then quantified by scintillation counting. […]

T1 sequence (P49841 whole entry): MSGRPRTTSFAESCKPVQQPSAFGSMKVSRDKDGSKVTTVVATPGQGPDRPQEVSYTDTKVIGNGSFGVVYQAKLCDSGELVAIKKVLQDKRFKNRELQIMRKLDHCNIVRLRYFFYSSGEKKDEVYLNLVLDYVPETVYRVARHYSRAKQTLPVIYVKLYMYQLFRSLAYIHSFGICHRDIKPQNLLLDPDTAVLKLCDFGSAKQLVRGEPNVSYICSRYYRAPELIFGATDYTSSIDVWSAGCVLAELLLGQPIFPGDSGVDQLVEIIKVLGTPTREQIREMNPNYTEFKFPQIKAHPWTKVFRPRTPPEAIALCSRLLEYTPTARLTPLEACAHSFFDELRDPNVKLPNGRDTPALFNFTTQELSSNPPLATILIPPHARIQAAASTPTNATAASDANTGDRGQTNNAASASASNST

Turning to `O=c1cc(-c2ccccc2)c2c(C3CCC3)[nH]nc2[nH]1` [Example 5, 3-Cyclobutyl-4-phenyl-2,7-dihydro-pyrazolo[3,4-b]yridin-6-one hydrochloride], the 50% inhibitory concentration (IC50) came out at 36 nM.

The record behind these values is patent US7300943B2, “GSK-3 inhibitors” (Pfizer Inc., priority 2003, dated 2007).
